PMC9814642 (2021)

How the values were obtained:
[1] = system: Oxyticha nova G-quadruplex (DNA, G4) GGGGTTTTGGGG; experiment: CD melting; details: 100 mM NaCl; 10 mM Tris-HCl pH 7.5; no change of Tm 59.2 °C; binds by end-stacking
[2] = system: HT G-quadruplex (DNA, G4) AGGGTTAGGGTTAGGGTTAGGG; experiment: CD melting at 295 nm; details: 100 mM NaCl; 10 mM Tris-HCl pH 7.5; derived from two Tm (56.6, 61.0); highest compound concentration, ratio only in Figure 2D
[3] = system: HT G-quadruplex (DNA, G4) AGGGTTAGGGTTAGGGTTAGGG; experiment: UV-vis absorption titration; details: 100 mM NaCl; 10 mM Tris-HCl pH 7.5, 25 °C; fit with [DNA] in base pairs, binding size s = 2.3; per base
[4] = system: Oxyticha nova G-quadruplex (DNA, G4) GGGGTTTTGGGG; experiment: UV-vis absorption titration; details: 100 mM NaCl; 10 mM Tris-HCl pH 7.5, 25 °C; fit with [DNA] in base pairs, binding size s = 1; per base
[5] = system: ds-DNA (HT with complementary sequence) (DNA, duplex) AGGGTTAGGGTTAGGGTTAGGG/CCCTAACCCTAACCCTAACCCT; experiment: time-resolved luminescence at 620 nm; details: 100 mM NaCl; 10 mM Tris-HCl pH 7.5; lifetimes 492 and 88.1 ns
[6] = system: HT8 (DNA, G4) AGGGTTATGGTTAGGGTTAGGG; experiment: time-resolved luminescence at 620 nm; details: 100 mM NaCl; 10 mM Tris-HCl pH 7.5; lifetimes 1046 and 151.2 ns
[7] = system: HT10 (DNA, G4) AGGGTTAGGTTTAGGGTTAGGG; experiment: time-resolved luminescence at 620 nm; details: 100 mM NaCl; 10 mM Tris-HCl pH 7.5; lifetimes 430.7 and 61.4 ns

ΔTm [1]: 0 °C | ΔTm [2]: 4.4 °C | K [3]: 5.1e+06 M⁻¹ | K [4]: 990000 M⁻¹ | binding [5]: yes | binding [6]: yes | binding [7]: yes
Compound: [Ru+2].c1ccc2nc3c4cccnc4c4ncccc4c3nc2c1.c1cnc2c(c1)ccc1cccnc12.c1cnc2c(c1)ccc1cccnc12
